# Test results: ChEMBL document CHEMBL1145651, “A constituent of Pterocarpus marsupium, (-)-epicatechin, as a potential antidiabetic agent” (1983)
# Legend:
# Format in all cases: functional
# Conditions in all cases: route intraperitoneal
# [1] = system: Rattus norvegicus; assay: Antihyperglycemic activity in Wistar rat assessed as decrease in alloxan-induced blood glucose level at 30 mg/kg, ip administered 168 hrs after alloxan challenge
# [2] = system: Rattus norvegicus; assay: Antihyperglycemic activity in Wistar rat assessed as decrease in alloxan-induced blood glucose level at 30 mg/kg, ip administered 72 hrs after alloxan challenge
# [3] = system: Rattus norvegicus; assay: Antihyperglycemic activity in Wistar rat assessed as decrease in alloxan-induced blood glucose level at 30 mg/kg, ip administered 120 hrs after alloxan challenge
# [4] = system: Rattus norvegicus; assay: Antihyperglycemic activity in Wistar rat assessed as decrease in alloxan-induced blood glucose level at 30 mg/kg, ip administered 72 to 288 hrs after alloxan challenge
# [5] = system: Rattus norvegicus; assay: Antihyperglycemic activity in Wistar rat assessed as decrease in alloxan-induced blood glucose level at 30 mg/kg, ip pretreated 24 hrs before alloxan challenge
# [6] = system: Rattus norvegicus; assay: Antihyperglycemic activity in Wistar rat assessed as decrease in alloxan-induced blood glucose level at 30 mg/kg, ip administered 288 hrs after alloxan challenge
smiles,measurement,setting,value
Oc1cc(O)c2c(c1)O[C@H](c1ccc(O)c(O)c1)[C@H](O)C2 [(-)-EPICATECHIN],Activity,[1],128 mg/dL
same,Activity,[2],138 mg/dL
same,Activity,[3],120 mg/dL
same,Activity,[4],129 mg/dL
same,Activity,[5],111 mg/dL
same,Activity,[6],117 mg/dL
